{"source": "patent US10160949B2", "about": "“Agent for improving sperm-motility” (Tokyo Metropolitan Geriatric Hospital and Institute of …, priority 2013, dated 2018)", "key": {"[1]": {"tested_on": "sperm on day 5 after collection", "experiment": "Migration distance of forwardly moving sperm by video recording and CASA (ImageJ)", "assay_type": "cell-based, human", "conditions": "FIG. 5; for average migration distance compared among untreated, H2 and N2 groups: 10 patients, 10 s of forward movement, P=0.2193", "protocol": "Then, the recorded video was analyzed by the CASA system (NIH) (computer assisted sperm analysis using ImageJ, description of necessary components and use of free software) to determine the migration distance of forwardly moving sperm."}, "[2]": {"experiment": "Concentration of hydrogen in liquid (hydrogen electrode)", "assay_type": "physicochemical", "conditions": "10 min after 30 min of the H2 treatment", "protocol": "Next, the culture solution was left to stand. […] The culture solution as so prepared was used to wash sperm, and a change in their motility was examined. […] After re-centrifugation, the concentration was decreased to 100 μM."}, "freeze-thawed sperm": {"tested_on": "freeze-thawed sperm", "protocol": "Semen that was transferred to the clinic within four hours after ejaculation was suspended in a solution in which equal amounts of the Cleavage Medium and TEST-yolk buffer (TYB; Irvine Scientific, CA, USA) had been mixed. Then, the mixture was dispensed into cryotubes. The resulting cryotubes were once exposed to nitrogen vapor for 5 min, and were then cryopreserved in liquid nitrogen. At the time of thawing, each cryotube was heated in warm water at 37° C. After that, the sperm suspension in the cryotube was dispensed into four vials.\nAfter the dispensed sperm suspension was washed for 5 min with each sperm washing medium, the motility of sperm was measured."}, "[3]": {"tested_on": "sperm that had a passage of five days or more after collection", "conditions": "for percentage of sperm with forward motility compared with control (untreated) group: duration of gas treatment 5 min; for samples in which the percentage of sperm with forward motility was increased: of 17 samples with forward motility less than 15%", "quoted_text": "In principle, the percentage (%) of sperm with motility (A+B+C)/(A+B+C+D) was calculated as an average as obtained by repeating the above examination two or three times. […] Here, as used herein, the percentage of sperm with forward motility is represented by the formula: (A+B)/(A+B+C+D).\nThe percentage of sperm with motility (the percentage of sperm with forward motility and the percentage of sperm with non-forward motility) and the percentage of immotile sperm were compared between the groups. […] To check whether or not the gas passed through the acryl box, another passage was inserted into a water-containing beaker. Whether the gas passed therethrough was confirmed by observing the occurrence of bubbling via the passage in the beaker. With regard to the N2 gas, the procedure was likewise performed and all were carried out at room temperature. A hundred μl of the sperm suspension was added dropwise to a 1008 dish. Before the mixed gas was made to pass therethrough, the dish was placed in the acryl box. […] After 40 min had passed, each sperm suspension was well mixed by pipetting. Next, several μl of the sperm suspension was added dropwise to a Makler container. Then, the sperm concentration, the number of sperm with forward motility, the number of sperm with non-forward motility, and the number of immotile sperm were determined visually. Also, with respect to the untreated group in which the sperm suspension was used as it was, the sperm concentration, the number of sperm with forward motility, the number of sperm with non-forward motility, and the number of immotile sperm were likewise determined visually. […] Samples of the untreated group in which the percentage of sperm with forward motility exceeded 15% were excluded. Regarding the rest samples, one sample was grouped into three treatment groups and each treatment group was measured twice. Specifically, with respect to each sample, the ratio of the number of sperm with forward motility to the total number of sperm in the visual field was defined as the percentage of sperm with forward motility. The ratio of the number of sperm with some motility (a moving flagellum), but without forward motility to the total number of sperm was defined as the percentage of sperm with non-forward motility."}, "mitochondria of sperm": {"tested_on": "mitochondria of sperm", "conditions": "FIG. 7(d); compared with untreated and N2 treatment groups; P<0.001", "description": "The stained sperm were visualized using a laser scanning confocal microscope (Leica, Wetzlar, Germany). In addition, the viability of sperm was checked by PI fluorescence staining.\nMeanwhile, the differential interference images were designated as DIC (Differential interference contrast). […] FIG. 7(d) is a graph showing the results of semi-quantifying, using the ImageJ, the fluorescent intensity of the sperm stained with TMRM."}, "[4]": {"conditions": "mixed gas containing 50% hydrogen molecules used for bubbling of a liquid; cited from earlier work"}, "[5]": {"conditions": "FIG. 3(a), sperm 5 days or more after collection, mixed gas treatment 40 min, 30 samples"}, "[6]": {"conditions": "FIG. 4, 17 samples from patients with forward motility less than 15%"}}, "note": "Where two headings read alike, the source gives them in different places.", "data": [{"smiles": "[HH]", "note": "[H2, hydrogen]", "values": [{"measurement": "average migration distance compared among untreated, H2 and N2 groups", "setting": "[1]", "value": "no significant difference"}, {"measurement": "migration distance per second of the sperm", "setting": "[1]; compared with untreated and N2 groups", "value": "the longest one"}, {"measurement": "hydrogen in 10 μl of the sperm suspension", "setting": "[2]", "value": "eliminated"}, {"measurement": "percentage of sperm with forward motility (average)", "setting": "freeze-thawed sperm; FIG. 8(a), 6 samples, patients with forward motility 50% or higher, washing medium containing 50% of H2, 5 min", "value": 61.3, "unit": "%"}, {"measurement": "percentage of sperm with forward motility (average)", "setting": "freeze-thawed sperm; FIG. 8(a), 6 samples, patients with forward motility 50% or higher, washing medium containing 75% of H2, 5 min", "value": 71.0, "unit": "%"}, {"measurement": "percentage of sperm with forward motility (average)", "setting": "freeze-thawed sperm; FIG. 8(a), 6 samples, patients with forward motility 50% or higher, washing medium containing 100% of H2, 5 min", "value": 70.0, "unit": "%"}, {"measurement": "percentage of sperm with forward motility (average)", "setting": "freeze-thawed sperm; FIG. 8(b), 15 samples, patients with forward motility less than 50%, washing medium containing 50% of H2, 5 min", "value": 41.2, "unit": "%"}, {"measurement": "percentage of sperm with forward motility (average)", "setting": "freeze-thawed sperm; FIG. 8(b), 15 samples, patients with forward motility less than 50%, washing medium containing 75% of H2, 5 min", "value": 40.8, "unit": "%"}, {"measurement": "percentage of sperm with forward motility (average)", "setting": "freeze-thawed sperm; FIG. 8(b), 15 samples, patients with forward motility less than 50%, washing medium containing 100% of H2, 5 min", "value": 31.4, "unit": "%"}, {"measurement": "percentage of sperm with forward motility (average)", "setting": "[3]; [5]", "value": 16.8, "unit": "%"}, {"measurement": "samples with percentage of sperm with forward motility higher than in the control", "setting": "[3]; FIG. 3(b), duration of H2 treatment 30 or 60 min", "value": "about 70 % of the samples"}, {"measurement": "percentage of sperm with forward motility compared with control (untreated) group", "setting": "[3]; FIG. 3(b)", "value": "tended to decrease"}, {"measurement": "percentage of sperm with forward motility compared with control (untreated) group", "setting": "[3]; FIG. 3(b), listed as gaseous agent for improving sperm-motility", "value": "did not result in the recovery of the motility of sperm"}, {"measurement": "percentage of sperm with forward motility (average)", "setting": "[3]; [6]", "value": 11, "unit": "%"}, {"measurement": "samples in which the percentage of sperm with forward motility was increased", "setting": "[3]; FIG. 4", "value": 16, "unit": "samples"}, {"measurement": "time course of forward motility after treatment", "setting": "[3]; FIG. 6, 30 to 150 min after 30 min H2 treatment, 10 patients", "value": "a big change in the forward motility of sperm was not observed"}, {"measurement": "motility 24 hours after treatment", "setting": "[3]; FIG. 6, H2 treatment 30 min, retreatment 30 min at 24 hours", "value": "had motility even after 24 hours"}, {"measurement": "samples of sperm with non-forward motility among samples in which forward motility was not recovered", "setting": "[3]; of 12 samples (25%)", "value": 3, "unit": "samples"}, {"measurement": "samples in which forward movement was recovered only in the H2 treatment group", "setting": "[3]; of 17 samples (35%), no recovery in untreated and N2 groups", "value": "Six"}, {"measurement": "samples in which the H2 treatment group exhibited a longer migration distance (increased forward motility) than the N2 treatment group", "setting": "[3]; of 18 samples in which forward motility was recovered (94%), P<0.01", "value": 17, "unit": "samples"}, {"measurement": "intensity of TMRM fluorescence (mitochondrial membrane potential)", "setting": "mitochondria of sperm", "value": "strong intensity of TMRM fluorescence"}, {"measurement": "hydrogen solubility", "setting": "[4]", "value": "about 0.4 mM"}]}, {"smiles": "N#N", "note": "[N2, nitrogen, reference compound]", "values": [{"measurement": "average migration distance compared among untreated, H2 and N2 groups", "setting": "[1]", "value": "no significant difference"}, {"measurement": "percentage of sperm with forward motility (average)", "setting": "[3]; [5]", "value": 7.7, "unit": "%"}, {"measurement": "percentage of sperm with forward motility (average)", "setting": "[3]; [6]", "value": 3.6, "unit": "%"}, {"measurement": "samples in which the percentage of sperm with forward motility was increased", "setting": "[3]; FIG. 4", "value": "four"}]}]}
